Assay results taken from patent publication US12466821B2 (Novartis AG, priority 2018, dated 2025).

What was measured:
[1] = target: human CMV DNA polymerase UL54 (Human cytomegalovirus (strain AD169) (HHV-5) (Human herpesvirus 5), UniProt P08546); assay: CMV polymerase biochemical assay (molecular beacon-based)
How it was run: (§1)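 Readout was beacon fluorescence (ex 480, em 535 nm), used to derive IC50. Each dNTP was at 1.25 uM, with 200 nM primer and 100 nM beacon, after a 30-min RT inhibitor preincubation. Enzyme was 625 pM for HSV UL30 (20 min RT reaction) or 100 pM for CMV UL54 (60 min RT), both sf9-expressed MBP fusions, in pH 7.5 Tris buffer with MgCl2.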

[2] = target: human HSV DNA polymerase UL30 (Human herpesvirus 1 (strain 17) (HHV-1) (Human herpes simplex virus 1), UniProt P04293); assay: HSV polymerase biochemical assay (molecular beacon-based)
How it was run: as §1

[3] = tested on: Luciferase-encoding HCMV, AD169 strain; assay: CMV Luciferase assay (cellular herpesvirus replication); type: cell-based; details: Human betaherpesvirus 5, AD169, read-out: CMV-Luc Cellular EC50
How it was run: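 Neonatal human dermal fibroblasts were pretreated 1 h with compound (final 0.0159–50 μM or 0.00318–10 μM, 0.5% DMSO), then infected at MOI 1 with AD169 carrying pp28-promoter luciferase. After 72 h at 37 °C, Renilla-Glo luminescence normalized to no-virus and virus-only controls; EC50 by 4-parameter logistic model.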

Row | SMILES | IC50 [1] [nM] | IC50 [2] [nM] | EC50 [3] [nM]
1 | CNc1cc(CNC(=O)c2ccc3n(c2=O)CCN(CC2(S(=O)(=O)C4CC4)CC2)C3=O)ccc1C#N [Example 212, N-(4-cyano-3-(methylamino)benzyl)-2-((1-(cyclopropylsulfonyl)cyclopropyl)methyl)-1,6-dioxo-1,3,4,6-tetrahydro-2H-pyrido[1,2-a]pyrazine-7-carboxamide] | 0.6 | 51.4 | 315
2 | Cc1cc(C(=O)NCc2ccc(Cl)cc2)c(=O)n2c1C(=O)N(CC1(N(C)S(C)(=O)=O)CC1)CC2 [Example 149] | 112 | 2200 | 7910
3 | CS(=O)(=O)C1(CN2CCn3c(ccc(C(=O)NCc4ccc(Br)cc4)c3=O)C2=O)CC1 [Example 37] | 1.3 | 111 | 62.3
4 | N#Cc1ccc(CNC(=O)c2ccc3n(c2=O)CCN(CC2(S(=O)(=O)[C@@H]4CC4(F)F)CC2)C3=O)cc1Cl (single isomer, unassigned) [Example 102-2] | 1.5 | 162 | 85.2
5 | CC1(CN2CCn3c(ccc(C(=O)NCc4ccc(Cl)cc4)c3=O)C2=O)COC1 [Example 57-1] | 2660 | 31300 | 29200
6 | COc1cc(CNC(=O)c2ccc3n(c2=O)CCN(CC2(S(=O)(=O)C4CC4)CC2)C3=O)ccc1Cl [Example 3-5] | 2 | 117 | 211
7 | CC(C)(C(N)=O)S(=O)(=O)C1(CN2CCn3c(ccc(C(=O)NCc4ccc(Cl)cc4)c3=O)C2=O)CC1 [Example 177, 2-((1-((1-amino-2-methyl-1-oxopropan-2-yl)sulfonyl)cyclopropyl)methyl)-N-(4-chlorobenzyl)-1,6-dioxo-1,3,4,6-tetrahydro-2H-pyrido[1,2-a]pyrazine-7-carboxamide] | 1.5 | 18.1 | 12.4
8 | Cc1cc(C(=O)NCc2ccc(C#N)cc2)c(=O)n2c1C(=O)N(CC1(S(=O)(=O)C3CC3)CC1)CC2 [Example 93-1, N-(4-cyanobenzyl)-2-((1-(cyclopropylsulfonyl)cyclopropyl)methyl)-9-methyl-1,6-dioxo-2,3,4,6-tetrahydro-1H-pyrido[1,2-a]pyrazine-7-carboxamide] | 1.1 | 46.7 | 38.6
9 | N#Cc1ccc(CNC(=O)c2ccc3n(c2=O)CCN(CC2(S(=O)(=O)CC4(C(F)(F)F)CC4)CC2)C3=O)cc1F [Example 104-3] | 10.1 | 273 | 1080
10 | CCS(=O)(=O)C1(CN2CCn3c(ccc(C(=O)NCc4ccc(C#N)cc4)c3=O)C2=O)CC1 [Example 35] | 2.6 | 68.9 | 54.4
11 | CC(C)(C)NS(=O)(=O)C1(CN2CCn3c(ccc(C(=O)NCc4ccc(C#N)cc4)c3=O)C2=O)CC1 [Example 73-1] | 1.5 | 46.9 | 93.7
12 | N#Cc1ccc(CNC(=O)c2ccc3n(c2=O)CCN(CC2(S(=O)(=O)[C@@H]4CC4(F)F)CC2)C3=O)cc1 (single isomer, unassigned) [Example 100-2] | 1 | 39.5 | 43.1
13 | O=C(NCc1ccc(Cl)cc1)c1ccc2n(c1=O)CCN(CC1(S(=O)(=O)N3CCC3)CC1)C2=O [Example 87, 2-((1-(azetidin-1-ylsulfonyl)cyclopropyl)methyl)-N-(4-chlorobenzyl)-1,6-dioxo-2,3,4,6-tetrahydro-1H-pyrido[1,2-a]pyrazine-7-carboxamide] | 1.2 | 35.1 | 25.7
14 | O=C(NCc1ccc(Cl)cc1)c1ccc2n(c1=O)CCN(CC1(N3CCCC3=O)CC1)C2=O [Example 201, N-(4-chlorobenzyl)-1,6-dioxo-2-((1-(2-oxopyrrolidin-1-yl)cyclopropyl)methyl)-1,3,4,6-tetrahydro-2H-pyrido[1,2-a]pyrazine-7-carboxamide] | 182 | 4060 | 4810
15 | N#Cc1ccc(CNC(=O)c2ccc3n(c2=O)CCN(CC2(S(=O)(=O)CC4CC4)CC2)C3=O)cc1 [Example 107-2] | 2.5 | 150 | 200
16 | N#Cc1ccc(CNC(=O)c2ccc3n(c2=O)CCN(CC2(S(=O)(=O)C4CCOCC4)CC2)C3=O)cc1 [Example 105-2] | 2.5 | 64.3 | 178
17 | CCc1cc(C(=O)NCc2ccc(Cl)cc2)c(=O)n2c1C(=O)N(CC1(S(C)(=O)=O)CC1)CC2 [Example 136] | 2.5 | 136 | 86.7

Row | SMILES | IC50 [1] [nM] | IC50 [2] [nM] | EC50 [3] [nM]
18 | CC(C)(C(=O)NS(C)(=O)=O)S(=O)(=O)C1(CN2CCn3c(ccc(C(=O)NCc4ccc(Cl)cc4)c3=O)C2=O)CC1 [Example 176, N-(4-chlorobenzyl)-2-((1-((2-methyl-1-(methylsulfonamido)-1-oxopropan-2-yl)sulfonyl)cyclopropyl)methyl)-1,6-dioxo-1,3,4,6-tetrahydro-2H-pyrido[1,2-a]pyrazine-7-carboxamide] | 4.6 | 61.9 | 7230
19 | CN1CCC(S(=O)(=O)C2(CN3CCn4c(ccc(C(=O)NCc5ccc(Cl)cc5)c4=O)C3=O)CC2)C1 (stereo not drawn) [Example 80-2, N-(4-chlorobenzyl)-2-((1-((1-methylpyrrolidin-3-yl)sulfonyl)cyclopropyl)methyl)-1,6-dioxo-2,3,4,6-tetrahydro-1H-pyrido[1,2-a]pyrazine-7-carboxamide] | 9.7 | 177 | 247
20 | CS(=O)(=O)CCCN1CCn2c(ccc(C(=O)NCc3ccc(Cl)cc3)c2=O)C1=O [Example 52] | 163 | 791 | 2950
21 | O=C(NCc1ccc(Cl)cc1)c1ccc2n(c1=O)CCN(CC1(N3CCOC3=O)CC1)C2=O [Example 89-1, N-(4-chlorobenzyl)-1,6-dioxo-2-((1-(2-oxooxazolidin-3-yl)cyclopropyl)methyl)-2,3,4,6-tetrahydro-1H-pyrido[1,2-a]pyrazine-7-carboxamide] | 79.3 | 1260 | 4900
22 | CS(=O)(=O)C1(CN2CCn3c(ccc(C(=O)NCC4CCC(F)(F)CC4)c3=O)C2=O)CC1 [Example 43] | 62.5 | 7860 | 6420
23 | O=C(NCc1ccc(Cl)cc1)c1ccc2n(c1=O)CCN(CC1(S(=O)(=O)CC3(C(F)(F)F)CC3)CC1)C2=O [Example 104-1] | 18.6 | 185 | 639
24 | CC1Cn2c(ccc(C(=O)NCc3ccc(Cl)cc3)c2=O)C(=O)N1CCN(C)S(C)(=O)=O (stereo not drawn) [Example 92, N-(4-chlorobenzyl)-3-methyl-2-(2-(N-methylmethylsulfonamido)ethyl)-1,6-dioxo-2,3,4,6-tetrahydro-1H-pyrido[1,2-a]pyrazine-7-carboxamide] | 312 | 1340 | 2980
25 | COC1(S(=O)(=O)C2(CN3CCn4c(ccc(C(=O)NCc5ccc(C#N)cc5)c4=O)C3=O)CC2)CC1 [Example 189] | 1.1 | 59.8 | 55.7
26 | COCCN1CCn2c(ccc(C(=O)NCc3ccc(Cl)cc3)c2=O)C1=O [Example 55] | 708 | 11500 | 6710
27 | CS(=O)(=O)C1(CN2CCn3c(ccc(C(=O)NCc4ccc(F)cc4)c3=O)C2=O)CC1 [Example 47] | 20 | 393 | 783
28 | O=C(NCc1ccc(Cl)cc1)c1cc(CF)c2n(c1=O)CCN(CCN1CCCS1(=O)=O)C2=O [Example 141] | 72.8 | 328 | 1650
29 | CS(=O)(=O)CCN1CCn2c(c(C#N)cc(C(=O)NCc3ccc(Cl)cc3)c2=O)C1=O [Example 125, N-(4-chlorobenzyl)-9-cyano-2-(2-(methylsulfonyl)ethyl)-1,6-dioxo-1,3,4,6-tetrahydro-2H-pyrido[1,2-a]pyrazine-7-carboxamide] | 566 | 1010 | 20200
30 | Cc1nc(-c2cc(C(=O)NCc3ccc(Cl)cc3)c(=O)n3c2C(=O)N(CCS(C)(=O)=O)CC3)no1 [Example 159, N-(4-chlorobenzyl)-9-(5-methyl-1,2,4-oxadiazol-3-yl)-2-(2-(methylsulfonyl)ethyl)-1,6-dioxo-1,3,4,6-tetrahydro-2H-pyrido[1,2-a]pyrazine-7-carboxamide] | 1780 | 5660 | 26600
31 | N#Cc1ccc(CNC(=O)c2ccc3n(c2=O)CCN(CC2(S(=O)(=O)N4CC(F)(F)C4)CC2)C3=O)cc1 [Example 84-1, N-(4-cyanobenzyl)-2-((1-((3,3-difluoroazetidin-1-yl)sulfonyl)cyclopropyl)methyl)-1,6-dioxo-2,3,4,6-tetrahydro-1H-pyrido[1,2-a]pyrazine-7-carboxamide] | 3.9 | 102 | 69.6
32 | O=C(NCc1ccc(Cl)cc1)c1ccc2n(c1=O)CCN(CC1(S(=O)(=O)CC3CC3)CC1)C2=O [Example 107-1, N-(4-chlorobenzyl)-2-((1-((cyclopropylmethyl)sulfonyl)cyclopropyl)methyl)-1,6-dioxo-2,3,4,6-tetrahydro-1H-pyrido[1,2-a]pyrazine-7-carboxamide] | 1.9 | 61.6 | 111
33 | O=C(NCc1ccc(Cl)cc1)c1ccc2n(c1=O)CCN(C1CCS(=O)(=O)C1)C2=O (stereo not drawn) [Example 53-1] | 729 | 4440 | 11200
